Holding throughout (assay type): in vivo
The test system of assay [1] is Magnaporthe oryzae. The experiment in a line: whole plant or invertebrate. Conditions: for inhibition at 100 µM / inhibition at 500 µM: Pyricularia oryzae, read-out: inhibition rate on the number of necrotic spots.
The subject of another assay is Bipolaris maydis. In words: whole plant or invertebrate. The note with it: for inhibition at 500 µM: Bipolaris maydis, in Zea mays, read-out: inhibition rate on the formation of disease spots.
For assay [2], the system named is Magnaporthe oryzae. In words: whole plant or invertebrate. Conditions: Pyricularia oryzae, read-out: inhibition rate of formation of rice blast necrotic spots, prevention experimental group.
Assay [3] relates to Magnaporthe oryzae. The experiment in a line: whole plant or invertebrate. Conditions: Pyricularia oryzae, read-out: inhibition rate of formation of rice blast necrotic spots, treatment experimental group.
A further assay concerns Blumeria graminis. The experiment in a line: Pathogenicity of Blumeria graminis on wheat leaves. The note with it: 500 μmol/L, vs DMSO.

Read-outs that look alike come from different tables or passages of the source. Bounds are passed on as bounds.

As to `CCN(CC)C(=O)n1cnc(S(=O)(=O)c2c(C)cc(C)cc2C)n1` [Cafenstrole], the inhibition at 100 µM in the assay with Magnaporthe oryzae [1] is over 50%. Moreover, the inhibition at 500 µM with Magnaporthe oryzae [1], in the assay with Bipolaris maydis, in the assay on Magnaporthe oryzae [2] and in the assay on Magnaporthe oryzae [3] was over 50% throughout.
On to `CC(C)N(C(=O)COc1nnc(C(F)(F)F)s1)c1ccc(F)cc1` [Flufenacet], for which the “inhibition of formation of disease spots on corn leaves (in words)” value in the assay with Bipolaris maydis (in vivo) was “not obvious”.
For `Cc1cccc(C)c1N(Cn1cccn1)C(=O)CCl` [Metazachlor], the inhibition at 100 µM in the assay on Magnaporthe oryzae [1] was over 50%. The inhibition at 500 µM with Magnaporthe oryzae [1], with Bipolaris maydis, in the assay with Magnaporthe oryzae [2] and in the assay on Magnaporthe oryzae [3] was over 50% throughout.
Consider `CC(C)N(C(=O)SC/C(Cl)=C/Cl)C(C)C` [Diallate], for which the inhibition at 100 µM in the assay on Magnaporthe oryzae [1] was over 50%. In addition, the inhibition at 500 µM with Magnaporthe oryzae [1], with Magnaporthe oryzae [2] and with Magnaporthe oryzae [3] was over 50% in each case.
`CC(C)N(C(=O)CCl)c1ccccc1` [Propachlor]: the “inhibition of the number of necrotic spots of Magnaporthe oryzae (in words)” value in the assay with Magnaporthe oryzae [1] (drug concentration 100 μM, 30 seedlings sprayed with 5 mL, rice) is on record as “insignificant inhibitory effect on rice blast”. Moreover, the inhibition at 500 µM in the assay on Bipolaris maydis was over 50%. Further, the “inhibition of occurrence of Blumeria graminis disease spots (in words)” value in the assay with Blumeria graminis is given as “all drugs except Propachlor could inhibit the occurrence of Blumeria graminis disease spots”.
For the compound `CCCCOCN(C(=O)CCl)c1c(CC)cccc1CC` [Butachlor], the inhibition at 500 µM with Magnaporthe oryzae [1] and in the assay with Bipolaris maydis was over 50% throughout.

For orientation: inhibition means the drop in the measured response relative to a control, in per cent.

These data come from patent US20220095622A1, “Application of Compounds Inhibiting Synthesis of Very Long Chain Fatty Acids in Preventing and Treating Microbial Pathogens and Method Thereof” (Sichuan Agricultural University, priority 2019, published 2022).
